Experiments:
[1] = system: MGC-803; assay: Antiproliferative activity against human MGC-803 cells assessed as inhibition of cell growth incubated for 72 hrs by SRB assay; assay type: functional, cell-based; conditions: MGC-803, 72 h
[2] = system: MCF7; assay: Antiproliferative activity against human MCF7 cells assessed as inhibition of cell growth incubated for 72 hrs by SRB assay; assay type: functional, cell-based; conditions: MCF7, 72 h
[3] = system: ECa-109 cell line; assay: Antiproliferative activity against human EC109 cells assessed as inhibition of cell growth incubated for 72 hrs by SRB assay; assay type: functional, cell-based; conditions: ECa-109, 72 h
[4] = system: TE-1; assay: Antiproliferative activity against human TE-1 cells assessed as inhibition of cell growth incubated for 72 hrs by SRB assay; assay type: functional, cell-based; conditions: TE-1, 72 h
[5] = system: ECa-109 cell line; assay: Induction of apoptosis in human EC-109 cells assessed as apoptotic rate at 5 mM after 24 hrs by Annexin V-FITC/propidium iodide staining based flow cytometry (reference value: 5.7 %); assay type: functional
[6] = system: ECa-109 cell line; assay: Induction of mitochondrial depolarization in human EC-109 cells assessed as depolarized cell population at 5 mM measured after 24 hrs by JC1 dye based flow cytometry (reference value: 4.2 %); assay type: functional
[7] = system: ECa-109 cell line; assay: Induction of apoptosis in human EC-109 cells assessed as apoptotic rate at 5 mM after 48 hrs by Annexin V-FITC/propidium iodide staining based flow cytometry (reference value: 3.8 %); assay type: functional
[8] = system: ECa-109 cell line; assay: Induction of apoptosis in human EC109 cells assessed as increase in intracellular ROS level at 5 mM incubated for 24 hrs by DCFH-DA staining based flow cytometry analysis (reference value: 0.6 %); assay type: functional

Question: For C=C1C(=O)[C@@]23[C@H](O)C[C@@H]4C(C)(C)CCC[C@@]4(COC(C)=O)[C@@H]2[C@@H](O)C[C@H]1[C@H]3O, which IC50 [1] is on record?
Answer: 8700 nM

Question: What about the IC50 [2] of the same compound?
Answer: 6790 nM

Question: And the IC50 [3]?
Answer: 5240 nM

Question: What about the IC50 [4] of the same compound?
Answer: 6820 nM

Question: For C=C1C(=O)[C@]23[C@H](O)[C@H]1CC[C@H]2[C@@]12CO[C@]3(O)[C@@H](O)[C@@H]1C(C)(C)CC[C@@H]2O [ORIDONIN], which IC50 [3] is on record?
Answer: 22000 nM

Question: Which results are given for C=C1C(=O)[C@@]23[C@H](O)C[C@@H]4C(C)(C)CCC[C@@]4(COC(C)=O)[C@@H]2[C@@H](O)C[C@H]1[C@H]3OC(=O)c1cccc(C)c1?
Answer: IC50 [1]: 310 nM; IC50 [2]: 290 nM; IC50 [3]: 370 nM; IC50 [4]: 320 nM

Question: How did the IC50 [1] turn out when C=C1C(=O)[C@@]23[C@H](O)C[C@@H]4C(C)(C)CCC[C@@]4(COC(C)=O)[C@@H]2[C@@H](O)C[C@H]1[C@H]3OC(=O)c1cccc(Cl)c1Cl was run?
Answer: 690 nM

Question: What about the IC50 [2] of the same compound?
Answer: 310 nM

Question: What about the IC50 [3] of the same compound?
Answer: 330 nM

Question: And the IC50 [4]?
Answer: 390 nM

Question: For C=C1C(=O)[C@@]23[C@H](O)C[C@@H]4C(C)(C)CCC[C@@]4(COC(C)=O)[C@@H]2[C@@H](O)C[C@H]1[C@H]3OC(=O)CCc1ccccc1, which IC50 [1] is on record?
Answer: 1280 nM

Question: And the IC50 [2]?
Answer: 600 nM

Question: And the IC50 [3]?
Answer: 680 nM

Question: What about the IC50 [4] of the same compound?
Answer: 720 nM

Question: For C=C1C(=O)[C@@]23[C@H](O)C[C@@H]4C(C)(C)CCC[C@@]4(COC(C)=O)[C@@H]2[C@@H](O)C[C@H]1[C@H]3OC(=O)c1ccc(OC)cc1, which IC50 [1] is on record?
Answer: 460 nM

Question: What about the IC50 [2] of the same compound?
Answer: 230 nM

Question: What about the IC50 [3] of the same compound?
Answer: 290 nM

Question: And the IC50 [4]?
Answer: 250 nM

Question: Which results are given for C=C1C(=O)[C@@]23[C@H](O)C[C@@H]4C(C)(C)CCC[C@@]4(COC(C)=O)[C@@H]2[C@@H](O)C[C@H]1[C@H]3OC(=O)c1ccc(C(F)(F)F)cc1?
Answer: IC50 [1]: 770 nM; IC50 [2]: 350 nM; IC50 [3]: 380 nM; IC50 [4]: 420 nM

Question: With C=C1C(=O)[C@@]23[C@H](O)C[C@@H]4C(C)(C)CCC[C@@]4(COC(C)=O)[C@@H]2[C@@H](O)C[C@H]1[C@H]3OC(=O)c1cccc(F)c1 as the compound, how does the IC50 [1] read?
Answer: 2350 nM

Question: What about the IC50 [2] of the same compound?
Answer: 2230 nM

Question: What about the IC50 [3] of the same compound?
Answer: 1630 nM

Question: And the IC50 [4]?
Answer: 1300 nM

Question: How did the IC50 [1] turn out when C=C1C(=O)[C@@]23[C@H](O)C[C@@H]4C(C)(C)CCC[C@@]4(COC(C)=O)[C@@H]2[C@@H](O)C[C@H]1[C@H]3OC(=O)c1cccc(C(F)(F)F)c1 was run?
Answer: 1150 nM

Question: What about the IC50 [2] of the same compound?
Answer: 290 nM

Question: And the IC50 [3]?
Answer: 330 nM

Question: And the IC50 [4]?
Answer: 370 nM

Question: What does the source list for C=C1C(=O)[C@@]23[C@H](O)C[C@@H]4C(C)(C)CCC[C@@]4(COC(C)=O)[C@@H]2[C@@H](O)C[C@H]1[C@H]3OC(=O)c1ccc(C)cc1?
Answer: IC50 [1]: 480 nM; IC50 [2]: 240 nM; IC50 [3]: 300 nM; IC50 [4]: 300 nM

Question: What does the source list for C=C1C(=O)[C@@]23[C@H](O)C[C@@H]4C(C)(C)CCC[C@@]4(COC(C)=O)[C@@H]2[C@@H](O)C[C@H]1[C@H]3OC(=O)c1ccc(Cl)cc1?
Answer: IC50 [1]: 280 nM; IC50 [2]: 270 nM; IC50 [3]: 330 nM; IC50 [4]: 380 nM

Question: What does the source list for C=C1C(=O)[C@@]23[C@H](O)C[C@@H]4C(C)(C)CCC[C@@]4(COC(C)=O)[C@@H]2[C@@H](O)C[C@H]1[C@H]3OC(=O)c1cccc(OC)c1?
Answer: IC50 [1]: 460 nM; IC50 [2]: 250 nM; IC50 [3]: 440 nM; IC50 [4]: 420 nM

Question: Which IC50 [1] does the source give for C=C1C(=O)[C@@]23[C@H](O)C[C@@H]4C(C)(C)CCC[C@@]4(COC(C)=O)[C@@H]2[C@@H](O)C[C@H]1[C@H]3OC(=O)c1ccc(OC)c(OC)c1 here?
Answer: 570 nM

Question: And the IC50 [2]?
Answer: 140 nM

Question: And the IC50 [3]?
Answer: 270 nM

Question: And the IC50 [4]?
Answer: 340 nM

Question: With C=C1C(=O)[C@@]23[C@H](O)C[C@@H]4C(C)(C)CCC[C@@]4(COC(C)=O)[C@@H]2[C@@H](O)C[C@H]1[C@H]3OC(=O)c1cccc(Cl)c1 as the compound, how does the IC50 [1] read?
Answer: 410 nM

Question: And the IC50 [2]?
Answer: 360 nM

Question: And the IC50 [3]?
Answer: 400 nM

Question: What about the IC50 [4] of the same compound?
Answer: 410 nM

Question: How did the IC50 [1] turn out when C=C1C(=O)[C@@]23[C@H](O)C[C@@H]4C(C)(C)CCC[C@@]4(COC(C)=O)[C@@H]2[C@@H](O)C[C@H]1[C@H]3OC(=O)CCCBr was run?
Answer: 250 nM

Question: What about the IC50 [2] of the same compound?
Answer: 470 nM

Question: What about the IC50 [3] of the same compound?
Answer: 760 nM

Question: And the IC50 [4]?
Answer: 470 nM

Question: With C=C1C(=O)[C@@]23[C@H](O)C[C@@H]4C(C)(C)CCC[C@@]4(COC(C)=O)[C@@H]2[C@@H](O)C[C@H]1[C@H]3OC(=O)c1ccc(Br)cc1 as the compound, how does the IC50 [1] read?
Answer: 610 nM

Question: And the IC50 [2]?
Answer: 330 nM

Question: What about the IC50 [3] of the same compound?
Answer: 380 nM

Question: And the IC50 [4]?
Answer: 390 nM

Question: How did the IC50 [1] turn out when C=C1C(=O)[C@@]23[C@H](O)C[C@@H]4C(C)(C)CCC[C@@]4(COC(C)=O)[C@@H]2[C@@H](O)C[C@H]1[C@H]3OC(=O)c1ccccc1Br was run?
Answer: 520 nM

Question: What about the IC50 [2] of the same compound?
Answer: 460 nM

Question: And the IC50 [3]?
Answer: 510 nM

Question: And the IC50 [4]?
Answer: 370 nM

Question: With C=C1C(=O)[C@@]23[C@H](O)C[C@@H]4C(C)(C)CCC[C@@]4(COC(C)=O)[C@@H]2[C@@H](O)C[C@H]1[C@H]3OC(=O)c1ccccc1 as the compound, how does the IC50 [1] read?
Answer: 470 nM

Question: What about the IC50 [2] of the same compound?
Answer: 200 nM

Question: What about the IC50 [3] of the same compound?
Answer: 310 nM

Question: What about the IC50 [4] of the same compound?
Answer: 330 nM

Question: Which IC50 [1] does the source give for C=C1C(=O)[C@@]23[C@H](O)C[C@@H]4C(C)(C)CCC[C@@]4(COC(C)=O)[C@@H]2[C@@H](O)C[C@H]1[C@H]3OC(=O)c1ccc(CBr)cc1 here?
Answer: 340 nM

Question: What about the IC50 [2] of the same compound?
Answer: 140 nM

Question: What about the IC50 [3] of the same compound?
Answer: 170 nM

Question: What about the IC50 [4] of the same compound?
Answer: 250 nM

Question: Which IC50 [1] does the source give for C=C1C(=O)[C@@]23[C@H](O)C[C@@H]4C(C)(C)CCC[C@@]4(COC(C)=O)[C@@H]2[C@@H](O)C[C@H]1[C@H]3OC(=O)c1ccccc1F here?
Answer: 2290 nM

Question: And the IC50 [2]?
Answer: 1720 nM

Question: What about the IC50 [3] of the same compound?
Answer: 1630 nM

Question: What about the IC50 [4] of the same compound?
Answer: 3630 nM

Question: What does the source list for C=C1C(=O)[C@@]23[C@H](O)C[C@@H]4C(C)(C)CCC[C@@]4(COC(C)=O)[C@@H]2[C@@H](O)C[C@H]1[C@H]3OC(=O)c1ccc(Cl)cc1Cl?
Answer: IC50 [1]: 1150 nM; IC50 [2]: 1170 nM; IC50 [3]: 4250 nM; IC50 [4]: 1240 nM

Question: With C=C1C(=O)[C@@]23[C@H](O)C[C@@H]4C(C)(C)CCC[C@@]4(COC(C)=O)[C@@H]2[C@@H](O)C[C@H]1[C@H]3OC(=O)c1ccccc1Cl as the compound, how does the IC50 [1] read?
Answer: 710 nM

Question: What about the IC50 [2] of the same compound?
Answer: 410 nM

Question: What about the IC50 [3] of the same compound?
Answer: 410 nM

Question: And the IC50 [4]?
Answer: 450 nM

Question: C=C1C(=O)[C@@]23[C@H](O)C[C@@H]4C(C)(C)CCC[C@@]4(COC(C)=O)[C@@H]2[C@@H](O)C[C@H]1[C@H]3OC(=O)c1ccccc1C was tested. Which IC50 [1] did it give?
Answer: 630 nM

Question: And the IC50 [2]?
Answer: 390 nM

Question: And the IC50 [3]?
Answer: 470 nM

Question: And the IC50 [4]?
Answer: 450 nM

Question: With CC(=O)N[C@@H](CS)C(=O)O [ACETYLCYSTEINE] as the compound, how does the Activity [5] read?
Answer: 6.4%

Question: What about the Activity [6] of the same compound?
Answer: 4.8%

Question: What about the Activity [7] of the same compound?
Answer: 4.5%

Question: What about the Activity [8] of the same compound?
Answer: 0.2%

Question: How did the IC50 [1] turn out when C=C1C(=O)[C@@]23[C@H](O)C[C@@H]4C(C)(C)CCC[C@@]4(COC(C)=O)[C@@H]2[C@@H](O)C[C@H]1[C@H]3OC(=O)c1cccc(Br)c1 was run?
Answer: 420 nM

Question: And the IC50 [2]?
Answer: 380 nM

Question: And the IC50 [3]?
Answer: 240 nM

Question: What about the IC50 [4] of the same compound?
Answer: 160 nM

Question: For C=C1C(=O)[C@@]23[C@H](O)C[C@@H]4C(C)(C)CCC[C@@]4(COC(C)=O)[C@@H]2[C@@H](O)C[C@H]1[C@H]3OC(=O)c1cc(Cl)ccc1OC, which IC50 [1] is on record?
Answer: 660 nM

Question: What about the IC50 [2] of the same compound?
Answer: 480 nM

Question: What about the IC50 [3] of the same compound?
Answer: 560 nM

Question: And the IC50 [4]?
Answer: 460 nM

Question: How did the IC50 [1] turn out when C=C1C(=O)[C@@]23[C@H](O)C[C@@H]4C(C)(C)CCC[C@@]4(COC(C)=O)[C@@H]2[C@@H](O)C[C@H]1[C@H]3OC(=O)c1ccccc1C(F)(F)F was run?
Answer: 790 nM

Question: What about the IC50 [2] of the same compound?
Answer: 400 nM

Question: What about the IC50 [3] of the same compound?
Answer: 420 nM

Question: And the IC50 [4]?
Answer: 320 nM

Question: How did the IC50 [1] turn out when C=C1C(=O)[C@@]23[C@H](O)C[C@@H]4C(C)(C)CCC[C@@]4(COC(C)=O)[C@@H]2[C@@H](O)C[C@H]1[C@H]3OC(=O)c1ccc(F)cc1 was run?
Answer: 920 nM

Question: And the IC50 [2]?
Answer: 1340 nM

Question: What about the IC50 [3] of the same compound?
Answer: 8480 nM

Question: And the IC50 [4]?
Answer: 20100 nM
